For this assay, the system named is KG-1. Kind of assay: Induction of apoptosis in human KG-1 cells measured after 24 hrs by Annexin V-FITC/propidium iodide staining based flow cytometry analysis. It counts as functional, cell-based. The following applies: dose 0.5-1 µM. (In general: A flow cytometer gives signals particle by particle.)

SMILES strings stand for the structures.

In the case of `O=C(CCCCCCOc1cccc(-c2nc3ccccc3[nH]2)c1)NO`, the Activity entry was “Dose-Dependent Effect”.

Source of the values: ChEMBL document CHEMBL5038666, “Discovery of DNA-Targeting HDAC Inhibitors with Potent Antitumor Efficacy In Vivo That Trigger Antitumor Immunity” (J Med Chem, 2022).
